Test results reported in article PMC10950897, “VCF1 is a p97/VCP cofactor promoting recognition of ubiquitylated p97-UFD1-NPL4 substrates” (Nature Communications, 2024).

Columns and labels:
ubiquitin (K48-Ub2-16) = assay: StrepTactin pulldown of VCF1 with K48-linked ubiquitin chains; ubiquitin interaction alone or in complex with p97; type: binding
Procedure: (§1) All in vitro binding experiments were performed in EBC or RIPA buffer as indicated. Recombinant Biotin-tagged K48-linked poly-ubiquitin chains (2−7) and K48-linked poly-ubiquitin chains (2−16) were purchased from R&D Systems and Enzo Life Science, respectively. Recombinant proteins were incubated with Strep-Tactin Sepharose (IBA), Glutathione agarose (Gold Biotechnology) or […] Fab-trap agarose (ChromoTek) overnight on an end-over-end rotator at 4 °C, washed six times with EBC or RIPA buffer, and resuspended in 2×Laemmli sample buffer. For p97, VCF1 or p47 pulldowns, antibodies (0.5 µg/sample) were coupled to agarose beads, incubated with recombinant proteins or cell lysates and washed with the indicated buffer. To assess p97-UFD1-NPL4 binding to ubiquitylated proteins in total cell extracts, U2OS cells were lysed in EBC buffer supplemented with protease and phosphatase inhibitors, sonicated and incubated on ice for 10 min. Lysates were cleared by centrifugation for 10 min at 16,100 × g. Cell lysate (40 µg) was added to recombinant proteins in EBC buffer, incubated overnight on the rotator with […] Fab-trap agarose (ChromoTek), and beads were washed six times.

p97 ATPase = assay: ATPase assay; type: biochemical, human; details: p97 25 nM; for relative ATPase activity: ATP 375 μM
Procedure: For ATPase assays, 1 ml of 5x assay buffer (250 mM Tris, pH 7.4; 100 mM MgCl2; 5 mM EDTA) was mixed with 3 ml water, 5 μl 0.5 M TCEP and 5 μl 10% Triton X. To 40 ul of this assay buffer, recombinant proteins were added, mixed and incubated for 30 min. Final protein concentrations were as follows: p97 (25 nM), VCF1 (range of 0, 0.025, 1, 10 and 25 nM). The reactions were started by adding 10 μl ATP (final concentration of 375 μM) to the 40 μl reactions in a 96 well plate. After 35 min at room temperature, reactions were stopped by adding 50 μl BIOMOL Green reagent (Enzo Life Sciences). Absorbance at 635 nm was measured after 4 min and the relative ATPase activity calculated. Reactions were performed in duplicates and repeated three times.

[1] = test system: p97 with poly-ubiquitylated mEos3.2; assay: In vitro p97 unfoldase assay (mEos3.2); type: biochemical, human; details: p97 100 nM hexamer, UFD1-NPL4 500 nM, VCF1 300 nM, 37 °C
Procedure: Di-ubiquitin-fused mEos3.2 fluorescent protein (diUb-mEos3.2) and ubiquitylation cascade proteins mUbe1, gpc78-ubc7 fusion and ubiquitin were recombinantly expressed in E. coli and purified as described previously. diUb-mEos3.2 substrate was enzymatically polyubiquitylated as described previously. […] The unfolding activity of p97 was monitored in vitro by measuring the decrease in diUb^n-mEos3.2 fluorescence. For this, diUb^n-mEos3.2 (35 nM), p97 (100 nM hexamer), UFD1-NPL4 (500 nM) and VCF1 (300 nM) were mixed as indicated in Eos assay buffer (50 mM HEPES, pH 7.5; 150 mM KCl; 2 mM MgCl2; 5% glycerol; 1 mM DTT) and pre-warmed to 37 °C for 5 min before ATP (2 mM) was added to start the reaction. Unfolding of red mEos3.2 fluorescence was measured every 15 s in a Varian Cary Eclipse spectrofluorometer (excitation: 500 nm; emission: 520 nm) and normalized to the first value after addition of ATP.

[2] = test system: p97 with UFD1-NPL4, p47 or FAF1; assay: In vitro binding with p97 cofactors (GST, StrepTactin, p47, p97 or FLAG pulldown); parameters: species or system human
Procedure: as §1

[3] = test system: C1QBP; histone H3 (U2OS/GFP-VCF1 cells); assay: GFP IP immunoblot for C1QBP and Histone H3; type: binding, human; details: U2OS/GFP-VCF1 WT
Procedure: Immunoblotting was performed as previously described. Immunoprecipitation (IP) of HA-tagged proteins was performed using Anti-HA Affinity matrix (Roche) under denaturing conditions, unless otherwise stated. GFP-trap and […] Fab-trap agarose (Chromotek) were used according to manufacturer’s instructions. Cell lysis was performed using RIPA buffer (140 mM NaCl; 10 mM Tris-HCl, pH 8.0; 0.1% sodium deoxycholate; 1% Triton X-100; 0.1% SDS; 1 mM EDTA; 0.5 mM EGTA) or EBC buffer (50 mM Tris, pH 7.5; 150 mM NaCl; 1 mM EDTA; 0.5% NP-40, 1 mM DTT). IPs were washed in non-denaturing buffer (50 mM Tris-HCl, pH 7.5; 150 mM NaCl; 0.5 mM EDTA). Cell lysis and IP under partially denaturing conditions were performed using denaturing buffer (20 mM Tris-HCl, pH 7.5; 50 mM NaCl; 0.5% sodium deoxycholate; 0.5% NP-40; 0.5% SDS; 1 mM EDTA). All lysis and wash buffers were supplemented with 1 mM fresh PMSF Protease Inhibitor (Thermo), complete EDTA-free protease inhibitor Cocktail Tablets (Roche), 1.25 mM N-ethylmaleimide (Sigma) and 50 µM PR-619 (Calbiochem).

VCF1: human FAM104A isoform 1, 186 amino acids (UniProt Q969W3); recombinant Strep-HA-tagged
interaction with ubiquitin (ubiquitin (K48-Ub2-16)): neither in isolation nor in complex with p97 did VCF1 display detectable interaction with ubiquitin
relative ATPase activity (p97 ATPase; 0.025 nM, replicate 1): 0.985
relative ATPase activity (p97 ATPase; 0.025 nM, replicate 2): 0.875
relative ATPase activity (p97 ATPase; 0.025 nM, replicate 3): 1.031
relative ATPase activity (p97 ATPase; 1 nM, replicate 1): 1.071
relative ATPase activity (p97 ATPase; 1 nM, replicate 2): 0.934
relative ATPase activity (p97 ATPase; 1 nM, replicate 3): 0.99
relative ATPase activity (p97 ATPase; 10 nM, replicate 1): 1.095
relative ATPase activity (p97 ATPase; 10 nM, replicate 2): 1.007
relative ATPase activity (p97 ATPase; 10 nM, replicate 3): 1.066
effect on p97 ATPase activity (in words) (p97 ATPase): had no impact on the ATPase activity of p97 in vitro
effect on p97-UFD1-NPL4-mediated unfolding of mEos3.2 [1]: did not accelerate the already highly efficient p97-UFD1-NPL4-mediated unfolding of poly-ubiquitylated mEos3.2 in vitro
co-purification of UFD1-NPL4 with immobilized VCF1 ([2]; StrepTactin pulldown): dependent on the presence of p97 and the p97-binding proficiency of VCF1
VCF1 in p47 IP ([2]; VCF1:p47 ratio approx. 1:3): little if any VCF1 is detectable in the p47 IP
VCF1 in p47 IP ([2]; VCF1:p47 ratio approx. 2:1): VCF1 now becomes detectable in p47 IPs
competition with p47 for p97 ([2]; VCF1:p47 ratio approx. 8:1): more efficiently outcompetes p47 binding to p97
displacement of p97-bound cofactors ([2]; high/increasing concentrations): displaced p47 and UFD1-NPL4 from p97 in vitro
simultaneous binding with UFD1-NPL4, p47 or FAF1 to p97 ([2]; moderate concentrations of VCF1): clearly permissive for the simultaneous binding
p97-independent enrichment in UFD1 pulldowns ([2]; purified Strep-HA-VCF1, no p97): modest p97-independent enrichment
direct interaction with UFD1-NPL4 ([2]; purified proteins, no p97): did not directly interact with UFD1-NPL4
C1QBP in VCF1 IP [3]: unable to detect C1QBP in VCF1 IPs
interaction with histone H3 [3]: weak interaction between VCF1 and histone H3
